Assay results: ChEMBL document CHEMBL1201862, “PubChem BioAssay data set” (2004)
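Step 1: Grow cells in 96-well plates. Step 2: Expose to compound for 48 hours at 5 concentrations. Step 3: Interpolate endpoints linearly; if unreached, use highest concentration. GI50 = concentration required for 50% inhibition of growth.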 Calls of active or inactive are those of the source. Cut-off read from the data, not from the text of the source: active = GI50 up to about 1.1 µM and inactive = higher.

Key:
Assay in all cases: growth of human tumour cells (NCI), 48 h
TK-10 = tested on: TK-10
OVCAR-8 = tested on: OVCAR-8
PC-3 = tested on: PC-3
MOLT-4 = tested on: MOLT-4
HOP-62 = tested on: HOP-62
SNB-19 = tested on: SNB-19
CAKI-1 = tested on: CAKI-1
UO-31 = tested on: UO-31
EKVX = tested on: EKVX
HCT-116 = tested on: HCT-116
CCRF-CEM = tested on: CCRF-CEM
NCI/ADR-RES = tested on: NCI/ADR-RES
T47D = tested on: T47D
OVCAR-4 = tested on: OVCAR-4
SF-295 = tested on: SF-295
KM12 = tested on: KM12
MDA-N = tested on: MDA-N
OVCAR-3 = tested on: OVCAR-3
HOP-92 = tested on: HOP-92
MDA-MB-435 = tested on: MDA-MB-435

Measured: GI50

CCC(/C=C/c1ccccc1)=N\NC(=S)N/N=C(/C=C/c1ccccc1)CC
inactive: TK-10 > 100 µM | OVCAR-8 20.4 µM | PC-3 72.9 µM | MOLT-4 5.51 µM | HOP-62 > 100 µM | SNB-19 63 µM | CAKI-1 > 100 µM | UO-31 13 µM | EKVX > 100 µM | HCT-116 19 µM | CCRF-CEM 7.55 µM | NCI/ADR-RES 29.6 µM | T47D 35.9 µM | OVCAR-4 35.2 µM | SF-295 87.7 µM | KM12 31.8 µM | MDA-N 58.1 µM | OVCAR-3 22.9 µM | HOP-92 83.9 µM | MDA-MB-435 46.5 µM

COc1c(C)c(C/C=C(\C)CCCCO[Si](c2ccccc2)(c2ccccc2)C(C)(C)C)c(OC)c(OC)c1OC
inactive: TK-10 > 31.6 µM | OVCAR-8 20.2 µM | PC-3 > 85.7 µM | MOLT-4 > 46.5 µM | HOP-62 25.1 µM | SNB-19 > 46.5 µM | CAKI-1 1.84 µM | UO-31 9.27 µM | EKVX > 31.6 µM | HCT-116 35.5 µM | CCRF-CEM > 46.5 µM | NCI/ADR-RES 27 µM | T47D > 83.9 µM | OVCAR-4 28.1 µM | SF-295 > 46.5 µM | KM12 14.8 µM | MDA-N > 46.5 µM | OVCAR-3 > 46.5 µM | HOP-92 > 31.6 µM | MDA-MB-435 > 46.5 µM

O=C1NC(N2CCOCC2)=N/C1=C\c1ccccc1
inactive: TK-10 > 100 µM | OVCAR-8 > 100 µM | PC-3 > 100 µM | MOLT-4 > 100 µM | HOP-62 > 100 µM | SNB-19 > 100 µM | CAKI-1 > 100 µM | UO-31 > 100 µM | EKVX > 100 µM | HCT-116 > 100 µM | CCRF-CEM > 100 µM | NCI/ADR-RES > 100 µM | T47D > 100 µM | OVCAR-4 > 100 µM | SF-295 > 100 µM | KM12 > 100 µM | MDA-N > 100 µM | OVCAR-3 > 100 µM | HOP-92 > 100 µM | MDA-MB-435 > 100 µM
